pIC50, pKi: −log10 of the molar value. Counter-ions that a name gives are not always drawn.
How the values were obtained:
CDK6/Cyclin D3 = CDK6/Cyclin D3 (Homo sapiens (Human), UniProt Q00534); experiment: CDK6/Cyclin D3 mobility shift assay; assay type: biochemical; settings: activated CDK6/Cyclin D3, 3.5 mM ATP, Morrison fit; read-out: CDK6_D3 Ki
CDK4/Cyclin D1 = CDK4/Cyclin D1 (Homo sapiens (Human), UniProt P11802); experiment: CDK4/Cyclin D1 mobility shift assay; assay type: biochemical; settings: activated CDK4/Cyclin D1, 3.5 mM ATP, Morrison fit; read-out: CDK4D1 Ki
CDK6 = CDK6 (Homo sapiens (Human), UniProt Q00534); experiment: Phospho-Serine 795 Rb ELISA assay in MV4-11 cells; assay type: cell-based; settings: overnight treatment, phospho-Rb S795, read-out: CDK6 pRB S795 ELISA MV4-11 cells IC50
CDK4 = CDK4 (Homo sapiens (Human), UniProt P11802); experiment: Phospho-Serine 795 Rb ELISA assay in JEKO-1 cells; assay type: cell-based; settings: overnight treatment, phospho-Rb S795, read-out: CDK4 pRB S795 ELISA JEKO-1 cells IC50
CDK4, sequence (P11802 2-303): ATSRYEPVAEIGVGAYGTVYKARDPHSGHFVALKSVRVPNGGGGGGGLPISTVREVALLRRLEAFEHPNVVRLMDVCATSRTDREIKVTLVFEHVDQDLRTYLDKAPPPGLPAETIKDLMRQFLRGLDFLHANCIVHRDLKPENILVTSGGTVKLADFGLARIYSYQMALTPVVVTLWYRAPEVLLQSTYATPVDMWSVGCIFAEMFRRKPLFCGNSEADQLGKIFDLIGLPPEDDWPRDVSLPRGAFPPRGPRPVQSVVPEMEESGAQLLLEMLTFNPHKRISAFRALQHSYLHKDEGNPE
CDK4, sequence (P24385 whole entry partner): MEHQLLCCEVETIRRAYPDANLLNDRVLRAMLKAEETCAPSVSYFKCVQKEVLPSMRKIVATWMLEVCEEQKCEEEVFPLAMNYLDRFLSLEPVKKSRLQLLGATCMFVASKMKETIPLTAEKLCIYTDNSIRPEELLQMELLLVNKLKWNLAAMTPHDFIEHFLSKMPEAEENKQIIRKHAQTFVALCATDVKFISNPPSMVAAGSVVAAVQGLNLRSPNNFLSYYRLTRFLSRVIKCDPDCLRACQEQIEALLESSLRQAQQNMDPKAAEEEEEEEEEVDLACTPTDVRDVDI

CDK6/Cyclin D3, sequence (Q00534 whole entry): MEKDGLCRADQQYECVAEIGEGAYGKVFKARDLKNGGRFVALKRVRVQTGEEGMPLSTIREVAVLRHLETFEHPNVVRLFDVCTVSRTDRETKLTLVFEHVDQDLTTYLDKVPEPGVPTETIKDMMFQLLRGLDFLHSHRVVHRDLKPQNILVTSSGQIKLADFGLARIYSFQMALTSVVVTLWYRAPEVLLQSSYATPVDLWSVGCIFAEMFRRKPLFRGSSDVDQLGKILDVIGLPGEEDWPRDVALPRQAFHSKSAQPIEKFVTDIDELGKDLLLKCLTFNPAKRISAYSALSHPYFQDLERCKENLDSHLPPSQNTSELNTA
CDK6/Cyclin D3, sequence (P30281 whole entry partner): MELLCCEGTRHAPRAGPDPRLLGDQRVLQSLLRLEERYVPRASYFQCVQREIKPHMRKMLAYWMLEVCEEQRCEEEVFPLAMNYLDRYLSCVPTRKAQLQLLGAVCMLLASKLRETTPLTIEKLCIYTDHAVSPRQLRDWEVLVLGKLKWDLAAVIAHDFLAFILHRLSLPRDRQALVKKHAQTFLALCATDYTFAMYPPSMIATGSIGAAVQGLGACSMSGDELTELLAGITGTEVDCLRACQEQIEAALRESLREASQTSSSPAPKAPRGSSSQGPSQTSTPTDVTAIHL
CDK6, sequence (Q00534 whole entry): as the sequence (Q00534 whole entry) above
CDK6, sequence (P30281 whole entry partner): as the sequence (P30281 whole entry partner) above
CDK4/Cyclin D1, sequence (P11802 whole entry): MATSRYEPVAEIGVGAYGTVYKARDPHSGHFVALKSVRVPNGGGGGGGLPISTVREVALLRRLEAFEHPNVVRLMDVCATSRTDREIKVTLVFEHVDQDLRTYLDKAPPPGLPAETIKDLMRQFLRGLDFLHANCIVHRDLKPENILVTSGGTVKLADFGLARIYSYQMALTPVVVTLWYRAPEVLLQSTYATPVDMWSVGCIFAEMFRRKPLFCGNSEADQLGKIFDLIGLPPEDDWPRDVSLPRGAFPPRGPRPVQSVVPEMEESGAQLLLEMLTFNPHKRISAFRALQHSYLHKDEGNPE
CDK4/Cyclin D1, sequence (P24385 whole entry partner): as the sequence (P24385 whole entry partner) above

Row | Structure (SMILES) | pKi (CDK6/Cyclin D3) | pKi (CDK4/Cyclin D1) | pIC50 (CDK6) | pIC50 (CDK4)
1 | CC(C)(C)n1cnc2ccc(-c3nc(N[C@@H]4CCN(S(C)(=O)=O)C[C@H]4O)ncc3F)cc21 [Example A77, (3R,4R)-4-{[4-(1-tert-butyl-1H-benzimidazol-6-yl)-5-fluoropyrimidin-2-yl]amino}-1-(methanesulfonyl)piperidin-3-ol] | 8.31 | 9.52 | 6.90 | 7.21
2 | CC(C)n1c(CNC2CC2)nc2c(F)cc(-c3nc(N[C@@H]4CCOC[C@H]4O)ncc3Cl)cc21 [Example H11, 1,5-anhydro-3-[(5-chloro-4-{2-[(cyclopropylamino)methyl]-4-fluoro-1-(propan-2-yl)-1H-benzimidazol-6-yl}pyrimidin-2-yl)amino]-2,3-dideoxy-D-threo-pentitol] | 7.66 | 9.15 | 6.53 | 7.36
3 | COCC(C)n1c(C)nc2c(F)cc(-c3nc(N[C@@H]4CCN(S(C)(=O)=O)C[C@H]4O)ncc3Cl)cc21 (single isomer, unassigned) [Example A74] | 8.21 | 9.70 | 7.05 | 7.58
4 | CC1(C)COCc2nc3c(F)cc(-c4nc(N[C@@H]5CCOC[C@H]5O)ncc4F)cc3n21 [Example A19] | 7.84 | 9.05 | 6.50 | 7.16
5 | Cc1nc2c(F)cc(-c3nc(N[C@@H]4CCN(S(C)(=O)=O)C[C@H]4O)ncc3C#N)cc2n1C(C)C [Example B01, 4-[4-fluoro-2-methyl-1-(propan-2-yl)-1H-benzimidazol-6-yl]-2-{[(3R,4R)-3-hydroxy-1-(methanesulfonyl)piperidin-4-yl]amino}pyrimidine-5-carbonitrile] | 8.82 | 10.00 | 6.89 | 7.18
6 | CC(C)n1c(C(C)(O)C2CC2)nc2c(F)cc(-c3nc(N[C@@H]4CCOC[C@H]4O)ncc3Cl)cc21 (single isomer, unassigned) [Example A24] | 7.79 | 8.89 | 6.78 | 7.40
7 | CNCC(=O)N1CC[C@@H](Nc2ncc(F)c(-c3cc(F)c4nc(C)n(C(C)C)c4c3)n2)[C@H](O)C1 [Example F23, 1-[(3R,4R)-4-({5-fluoro-4-[4-fluoro-2-methyl-1-(propan-2-yl)-1H-benzimidazol-6-yl]pyrimidin-2-yl}amino)-3-hydroxypiperidin-1-yl]-2-(methylamino)ethan-1-one] | 7.96 | 9.00 | 5.88 | 6.16
8 | CC(N)c1nc2c(F)cc(-c3nc(N[C@@H]4CCN(S(C)(=O)=O)C[C@H]4O)ncc3Cl)cc2n1C(C)C (single isomer, unassigned) [Example A47] | 7.61 | 9.00 | 6.43 | 6.42
9 | CC(C)n1c(CC(N)C(F)F)nc2c(F)cc(-c3nc(N[C@@H]4CCOC[C@H]4O)ncc3Cl)cc21 (single isomer, unassigned) [Example A58, 3-({4-[2-(2-amino-3,3-difluoropropyl)-4-fluoro-1-(propan-2-yl)-1H-benzimidazol-6-yl]-5-chloropyrimidin-2-yl}amino)-1,5-anhydro-2,3-dideoxy-D-threo-pentitol] | 7.75 | 9.22 | 6.69 | 7.48
10 | CC(C)n1c(CN2CC(O)C2)nc2c(F)cc(-c3nc(N[C@@H]4CCOC[C@H]4O)ncc3Cl)cc21 [Example H03, 1,5-anhydro-3-[(5-chloro-4-{4-fluoro-2-[(3-hydroxyazetidin-1-yl)methyl]-1-(propan-2-yl)-1H-benzimidazol-6-yl}pyrimidin-2-yl)amino]-2,3-dideoxy-D-threo-pentitol] | 7.17 | 8.74 | 6.37 | 6.81
11 | CC(C)n1c(C(C)(O)C2CC2)nc2c(F)cc(-c3nc(N[C@@H]4CCOC[C@H]4O)ncc3Cl)cc21 (single isomer, unassigned) [Example A23] | 7.94 | 9.30 | 7.08 | 7.58
12 | CC(C)NCc1nc2c(F)cc(-c3nc(N[C@@H]4CCOC[C@H]4O)ncc3Cl)cc2n1C(C)C [Example H08, 1,5-anhydro-3-({5-chloro-4-[4-fluoro-1-(propan-2-yl)-2-{[(propan-2-yl)amino]methyl}-1H-benzimidazol-6-yl]pyrimidin-2-yl}amino)-2,3-dideoxy-D-threo-pentitol] | 7.35 | 8.92 | 6.51 | 7.45
13 | CC(C)n1c([C@@H](C)O)nc2c(F)cc(-c3nc(N[C@@H]4CCOC[C@H]4O)ncc3Cl)cc21 [Example A13] | 7.50 | 8.77 | 6.56 | 7.14
14 | CC(C)n1c(C(C)(C)O)nc2c(F)cc(-c3nc(N[C@@H]4CCOC[C@H]4O)ncc3F)cc21 [Example A68, 1,5-anhydro-2,3-dideoxy-3-({5-fluoro-4-[4-fluoro-2-(2-hydroxpropan-2-yl)-1-(propan-2-yl)-1H-benzimidazol-6-yl]pyrimidin-2-yl}amino)-D-threo-pentitol] | 7.84 | 9.15 | 6.63 | 7.31

Continued by rising pKi (CDK6/Cyclin D3), values first:

Row | pKi (CDK6/Cyclin D3) | pKi (CDK4/Cyclin D1) | pIC50 (CDK6) | pIC50 (CDK4) | Structure (SMILES)
15 | 7.01 | 8.28 | 5.86 | 6.75 | Cc1nc2cc(Cl)c(-c3nc(N[C@@H]4CCN(S(C)(=O)=O)C[C@H]4O)ncc3F)cc2n1C(C)C [Example C01, (3R,4R)-4-({4-[5-chloro-2-methyl-1-(propan-2-yl)-1H-benzimidazol-6-yl]-5-fluoropyrimidin-2-yl}amino)-1-(methanesulfonyl)piperidin-3-ol]
16 | 7.37 | 8.85 | 6.39 | 7.32 | CC(C)n1c(CN2CCC2)nc2c(F)cc(-c3nc(N[C@@H]4CCOC[C@H]4O)ncc3Cl)cc21 [Example H07, 1,5-anhydro-3-[(4-{2-[(azetidin-1-yl)methyl]-4-fluoro-1-(propan-2-yl)-1H-benzimidazol-6-yl}-5-chloropyrimidin-2-yl)amino]-2,3-dideoxy-D-threo-pentitol]
17 | 7.40 | 8.66 | 6.59 | 7.07 | Cc1nc2ccc(-c3cc(N[C@@H]4CCOC[C@H]4O)ncc3Cl)nc2n1C(C)C [Example D05, 1,5-anhydro-3-({5-chloro-4-[2-methyl-3-(propan-2-yl)-3H-imidazo[4,5-b]pyridin-5-yl]pyridin-2-yl}amino)-2,3-dideoxy-D-threo-pentitol]
18 | 7.43 | 8.64 | 6.22 | 6.76 | CC(C)n1c(CN)nc2c(F)cc(-c3nc(N[C@@H]4CCOC[C@H]4O)ncc3Cl)cc21 [Example A54, 3-({4-[2-(aminomethyl)-4-fluoro-1-(propan-2-yl)-1H-benzimidazol-6-yl]-5-chloropyrimidin-2-yl}amino)-1,5-anhydro-2,3-dideoxy-D-threo-pentitol]
19 | 7.47 | 8.80 | 6.72 | 7.19 | C[C@@H](O)c1nc2c(F)cc(-c3nc(N[C@@H]4CCOC[C@H]4O)ncc3Cl)cc2n1C(C)(C)C [Example A60, 1,5-anhydro-3-[(4-{1-tert-butyl-4-fluoro-2-[(1R)-1-hydroxyethyl]-1H-benzimidazol-6-yl}-5-chloropyrimidin-2-yl)amino]-2,3-dideoxy-D-threo-pentitol]
20 | 7.56 | 8.82 | 6.87 | 6.79 | CN(C)CCN1CC[C@@H](Nc2ncc(Cl)c(-c3cc(F)c4ncn(C(C)(C)C)c4c3)n2)[C@H](O)C1 [Example F06, (3R,4R)-4-{[4-(1-tert-butyl-4-fluoro-1H-benzimidazol-6-yl)-5-chloropyrimidin-2-yl]amino}-1-[2-(dimethylamino)ethyl]piperidin-3-ol formic acid salt]
21 | 7.70 | 9.10 | 6.93 | 7.28 | CC(C)n1c(CN(C)C)nc2c(F)cc(-c3nc(N[C@@H]4CCOC[C@H]4O)ncc3Cl)cc21 [Example H02, 1,5-anhydro-3-[(5-chloro-4-{2-[(dimethylamino)methyl]-4-fluoro-1-(propan-2-yl)-1H-benzimidazol-6-yl}pyrimidin-2-yl)amino]-2,3-dideoxy-D-threo-pentitol]
22 | 8.04 | 9.30 | 6.77 | 7.21 | CC(C)(C)n1cnc2ccc(-c3cc(N[C@@H]4CCN(C(=O)CO)C[C@H]4O)ncc3Cl)nc21 [Example F22, 1-[(3R,4R)-4-{[4-(3-tert-butyl-3H-imidazo[4,5-b]pyridin-5-yl)-5-chloropyridin-2-yl]amino}-3-hydroxypiperidin-1-yl]-2-hydroxyethan-1-one]
23 | 8.38 | 9.70 | 7.61 | 7.91 | CC1(C)OCCn2nc3c(F)cc(-c4nc(N[C@@H]5CCN(S(C)(=O)=O)C[C@H]5O)ncc4Cl)cc3c21 [Example A26]
24 | 8.43 | 9.70 | 7.36 | 7.71 | CC(O)c1nc2c(F)cc(-c3nc(N[C@@H]4CCOC[C@H]4O)ncc3Cl)cc2n1C(C)C(F)F (single isomer, unassigned) [Example A36]
25 | 8.55 | 9.70 | 7.01 | 7.40 | CC(C)n1c(CO)nc2c(F)cc(-c3nc(N[C@@H]4CCN(S(C)(=O)=O)C[C@H]4O)ncc3Cl)cc21 [Example A87, (3R,4R)-4-({5-chloro-4-[4-fluoro-2-(hydroxymethyl)-1-(propan-2-yl)-1H-benzimidazol-6-yl]pyrimidin-2-yl}amino)-1-(methanesulfonyl)piperidin-3-ol]
